Measurements as given in ChEMBL document CHEMBL1123368, “Plant antitumor agents. 23. Synthesis and antileukemic activity of camptothecin analogues” (1986).
Calls of active or inactive are those of the source. The rule behind the calls is not given here.

What was measured:
[1] = system: P338; assay: Antitumor activity against P-338 leukemia in mice.; type: functional, Mus musculus
[2] = system: P338; assay: Compound was evaluated for antitumor activity against P-338 leukemia in mice, active dose range of the compound; Lowest dose administered, dose range was 2.5-40 mg/kg; type: functional, Mus musculus
[3] = system: L1210 leukemia (mouse); assay: Compound was evaluated for antitumor activity against L1210 leukemia in mice at the dose of 40 mg/kg; T/C=Survival time of treated/control animals*100
[4] = system: P338; assay: Compound was evaluated for antitumor activity against P-338 leukemia in mice, active dose range of the compound; Lowest dose to highest dose administered, dose range was 2.5-40 mg/kg; type: functional, Mus musculus
[5] = system: P338; assay: Compound was evaluated for antitumor activity against P-338 leukemia in mice at the dose of 32 mg/kg; T/C=Survival time of treated/control animals*100; type: functional, Mus musculus
[6] = system: P338; assay: Compound was evaluated for antitumor activity against P-338 leukemia in mice.a ctive dose range was 8-32 mg/kg; type: functional, Mus musculus
[7] = system: P338; assay: Compound was evaluated for antitumor activity against P-338 leukemia in mice at the dose of 16 mg/kg; T/C=Survival time of treated/control animals*100; type: functional, Mus musculus
[8] = system: P338; assay: Compound was evaluated for antitumor activity against P-338 leukemia in mice, active dose range of the compound; Lowest dose to highest dose administered, dose range was 2-32 mg/kg; type: functional, Mus musculus
[9] = system: P338; assay: Compound was evaluated for antitumor activity against P-338 leukemia in mice at the dose of 1.6 mg/kg; T/C=Survival time of treated/control animals*100; type: functional, Mus musculus
[10] = system: P338; assay: Compound was evaluated for antitumor activity against P-338 leukemia in mice, active dose range of the compound; Lowest dose administered, dose range was 0.4-1.6 mg/kg; type: functional, Mus musculus
[11] = system: P338; assay: Compound was evaluated for antitumor activity against P-338 leukemia in mice, active dose range of the compound; Lowest dose administered, dose range was 1.25-2.5 mg/kg; type: functional, Mus musculus
[12] = system: L1210 leukemia (mouse); assay: Compound was evaluated for antitumor activity against L1210 leukemia in mice at the dose of 2.5 mg/kg; T/C=Survival time of treated/control animals*100
[13] = system: P338; assay: Compound was evaluated for antitumor activity against P-338 leukemia in mice at the dose of 20 mg/kg; T/C=Survival time of treated/control animals*100; type: functional, Mus musculus
[14] = system: P338; assay: Compound was evaluated for antitumor activity against P-338 leukemia in mice, active dose range of the compound; Lowest dose to highest dose administered, dose range was 5-40 mg/kg; type: functional, Mus musculus
[15] = system: L1210 leukemia (mouse); assay: Antitumor activity against L1210 leukemia in mice
[16] = system: P338; assay: Compound was evaluated for antitumor activity against P-338 leukemia in mice; T/C=Survival time of treated/control animals*100; Inactive; type: functional; details: Mus musculus
[17] = system: P338; assay: Compound was evaluated for antitumor activity against P-338 leukemia in mice, active dose range of the compound; Lowest dose to highest dose administered, dose range was 7.5-60 mg/kg; type: functional, Mus musculus
[18] = system: P338; assay: Compound was evaluated for antitumor activity against P-338 leukemia in mice at the dose of 60 mg/kg; T/C=Survival time of treated/control animals*100; type: functional, Mus musculus
[19] = system: P338; assay: Compound was evaluated for antitumor activity against P-338 leukemia in mice, active dose range of the compound; Lowest dose administered, dose range was 7.5-15.5 mg/kg; type: functional, Mus musculus
[20] = system: P338; assay: Compound was evaluated for antitumor activity against P-338 leukemia in mice at the dose of 25 mg/kg; T/C=Survival time of treated/control animals*100; type: functional, Mus musculus
[21] = system: P338; assay: Compound was evaluated for antitumor activity against P-338 leukemia in mice. toxic dose range of the compound; Highest dose administered; type: functional, Mus musculus
[22] = system: P338; assay: Compound was evaluated for antitumor activity against P-338 leukemia in mice, active dose range of the compound; Lowest dose administered, dose range was 3.12-25 mg/kg; type: functional, Mus musculus
[23] = system: P338; assay: Compound was evaluated for antitumor activity against P-338 leukemia in mice, active dose range of the compound; Lowest dose administered, dose range was 4-16 mg/kg; type: functional, Mus musculus
[24] = system: P338; assay: Compound was evaluated for antitumor activity against P-338 leukemia in mice at the dose of 8 mg/kg; T/C=Survival time of treated/control animals*100; type: functional, Mus musculus
[25] = system: P338; assay: Compound was evaluated for antitumor activity against P-338 leukemia in mice; T/C=Survival time of treated/control animals *100; Inactive; type: functional; details: Mus musculus
[26] = system: P338; assay: Compound was evaluated for antitumor activity against P-338 leukemia in mice at the dose of 2 mg/kg; T/C=Survival time of treated/control animals*100; type: functional, Mus musculus
[27] = system: P338; assay: Compound was evaluated for antitumor activity against P-338 leukemia in mice, active dose range of the compound; Lowest dose administered, dose range was 2.0-4.0 mg/kg; type: functional, Mus musculus
[28] = system: L1210 leukemia (mouse); assay: Compound was evaluated for antitumor activity against L1210 leukemia in mice, active dose range of the compound; Lowest dose administered, dose range was 2.5-5 mg/kg
[29] = system: P338; assay: Compound was evaluated for antitumor activity against P-338 leukemia in mice at the dose of 4 mg/kg; T/C=Survival time of treated/control animals*100; type: functional, Mus musculus
[30] = system: P338; assay: Compound was evaluated for antitumor activity against P-338 leukemia in mice at the dose of 3.1 mg/kg; T/C=Survival time of treated/control animals*100; type: functional, Mus musculus
[31] = system: P338; assay: Compound was evaluated for antitumor activity against P-338 leukemia in mice, toxic dose range of the compound; type: functional, Mus musculus
[32] = system: P338; assay: Compound was evaluated for antitumor activity against P-338 leukemia in mice, active dose range of the compound; Lowest dose administered, dose range was 0.4-3.1 mg/kg; type: functional, Mus musculus
[33] = system: L1210 leukemia (mouse); assay: Compound was evaluated for antitumor activity against L1210 leukemia in mice at the dose of 10 mg/kg; T/C=Survival time of treated/control animals*100
[34] = system: L1210 leukemia (mouse); assay: Compound was evaluated for antitumor activity against L1210 leukemia in mice, active dose range of the compound; Lowest dose administered, dose range was 2.5-20 mg/kg

Structure (SMILES): CC[C@@]1(O)C(=O)OCc2c1cc1n(c2=O)Cc2cc3cccc([N+](=O)[O-])c3nc2-1
- No. of cures [1]: 0
- Active dose range [2]: 2.5 mg/kg
- T/C [3]: 151%

Structure (SMILES): CC[C@@]1(O)C(=O)OCc2c1cc1n(c2=O)Cc2cc3c(NC(C)=O)c(O)ccc3nc2-1
- No. of cures [1]: 0
- Active dose range [4]: 2.5 mg/kg
- T/C [3]: 220%

Structure (SMILES): CCC1(O)C(=O)OCc2c1cc1n(c2=O)Cc2cc3cccnc3nc2-1 (stereo not drawn)
- T/C [5]: 175%
- Active dose range [6]: 8 mg/kg
- No. of cures [1]: 0

Structure (SMILES): CCN(CC)CCOc1ccc2nc3c(cc2c1)Cn1c-3cc2c(c1=O)COC(=O)[C@]2(O)CC.Cl
- T/C [7]: 183%
- No. of cures [1]: 0
- Active dose range [8]: 2 mg/kg

Structure (SMILES): CC[C@@]1(O)C(=O)OCc2c1cc1n(c2=O)Cc2cc3cc(OC)ccc3nc2-1
- T/C [9]: 167%
- No. of cures [1]: 0
- Active dose range [10]: 0.4 mg/kg

Structure (SMILES): CCC1(O)C(=O)OCc2c1cc1n(c2=O)Cc2cc3cnccc3nc2-1 (stereo not drawn)
- No. of cures [1]: 0
- Active dose range [11]: 1.25 mg/kg
- T/C [12]: 162%

Structure (SMILES): CC[C@@]1(O)C(=O)OCc2c1cc1n(c2=O)Cc2cc3c([N+](=O)[O-])c(OC)ccc3nc2-1
- No. of cures [1]: 0
- Active dose range [4]: 2.5 mg/kg
- T/C [3]: 160%

Structure (SMILES): CC[C@@]1(O)C(=O)OCc2c1cc1n(c2=O)Cc2cc3c(N)c(OC)ccc3nc2-1
- No. of cures [1]: 0
- T/C [3]: 186%

Structure (SMILES): CC[C@@]1(O)C(=O)OCc2c1cc1n(c2=O)Cc2cc3c([N+](=O)[O-])c(O)ccc3nc2-1
- T/C [13]: 131%
- No. of cures [1]: 0
- Active dose range [4]: 2.5 mg/kg

Structure (SMILES): CCC1(O)C(=O)OCc2c1cc1n(c2=O)Cc2cc3cc(NC(C)=O)ccc3nc2-1 (stereo not drawn)
- No. of cures [1]: 1
- Active dose range [14]: 5 mg/kg
- KE (log cell kill) [15]: > 5.86
- T/C [3]: 318%

Structure (SMILES): CC[C@](O)(C(=O)[O-])c1cc2n(c(=O)c1CO)Cc1cc3ccccc3nc1-2.[Na+]
- T/C [3]: 215%

Structure (SMILES): CC[C@@]1(O)C(=O)OCc2c1cc1n(c2=O)Cc2cc3cc(OCC(=O)O)ccc3nc2-1
- T/C [16]: inactive

Structure (SMILES): CC[C@@]1(O)C(=O)OCc2c1cc1n(c2=O)Cc2cc3cccc(N)c3nc2-1
- T/C [16]: inactive

Structure (SMILES): CCC1(O)C(=O)OCc2c1cc1n(c2=O)Cc2cc3ccc(O)cc3nc2-1 (racemic)
- Active dose range [17]: 7.5 mg/kg
- No. of cures [1]: 3
- T/C [18]: 357%

Structure (SMILES): CCC1(O)C(=O)OCc2c1cc1n(c2=O)Cc2cc3cc([N+](=O)[O-])ccc3nc2-1 (racemic)
- No. of cures [1]: 1
- Active dose range [19]: 7.5 mg/kg
- KE (log cell kill) [15]: > 5.86

Structure (SMILES): CCC1(O)C(=O)OCc2c1cc1n(c2=O)Cc2cc3sccc3nc2-1 (racemic)
- T/C [20]: 193%
- No. of cures [1]: 0
- Toxic dose [21]: 50 mg/kg
- Active dose range [22]: 3.12 mg/kg

Structure (SMILES): CCC1(O)C(=O)OCc2c1cc1n(c2=O)Cc2cc3cc(N)ccc3nc2-1 (racemic)
- No. of cures [1]: 3
- Toxic dose [21]: 32 mg/kg
- Active dose range [23]: 4 mg/kg
- T/C [24]: 329%
- KE (log cell kill) [15]: > 5.86

Structure (SMILES): CCC1(O)C(=O)OCc2c1cc1n(c2=O)Cc2cc3cc(OC)c(OC)cc3nc2-1 (racemic)
- Toxic dose [21]: >50 mg/kg
- T/C [25]: inactive

Structure (SMILES): CCC1(O)C(=O)OCc2c1cc1n(c2=O)Cc2cc3cc4c(cc3nc2-1)OCO4 (racemic)
- T/C [26]: 325%
- No. of cures [1]: 2
- Active dose range [27]: 2 mg/kg
- KE (log cell kill) [15]: > 5.97

Structure (SMILES): CC[C@@]1(O)C(=O)OCc2c1cc1n(c2=O)Cc2cc3c(N)cccc3nc2-1 [9-AMINOCAMPTOTHECIN]
- No. of cures [1]: 4
- KE (log cell kill) [15]: > 5.86
- T/C [12]: 348%
- Active dose range [28]: 2.5 mg/kg

Structure (SMILES): CC[C@@]1(O)C(=O)OCc2c1cc1n(c2=O)Cc2cc3ccccc3nc2-1 [CAMPTOTHECIN]
- T/C [29]: 197%

Structure (SMILES): CC[C@@]1(O)C(=O)OCc2c1cc1n(c2=O)Cc2cc3cc(O)ccc3nc2-1 [HYDROXYCAMPTOTHECIN]
- T/C [30]: 297%
- No. of cures [1]: 0
- Toxic dose [31]: 6.25 mg/kg
- Active dose range [32]: 0.4 mg/kg

Structure (SMILES): CC[C@@]1(O)C(=O)OCc2c1cc1n(c2=O)Cc2cc3c([N+](=O)[O-])cccc3nc2-1 [RUBITECAN]
- No. of cures [1]: 5
- Toxic dose [21]: 40 mg/kg
- KE (log cell kill) [15]: > 5.86
- T/C [33]: 348%
- Active dose range [34]: 2.5 mg/kg
